Test results reported in patent US20250099486A1, “WOUND HEALING MEDICAMENT” (The University of Sheffield, priority 2017, published 2025).

Key:
[1] = system: endothelial cell; conditions: in vitro; reported by Merchan et al. 2010; cited from earlier work
[2] = system: chorionic allantoic membrane (CAM); test: CAM assay of deoxy sugar-loaded biomaterials (in ovo, implanted day 8, scored day 14); type: in vivo, chicken (Gallus domesticus); conditions: loaded (1 mg/ml) in cross-linked chitosan/collagen hydrogels
Protocol: Fertilized chicken (Gallus domesticus) eggs were purchased from Big Bird (Raiwind road, Lahore, Pakistan) and incubated at 37° C. from day 2 of fertilization until day 8 in a humidified egg incubator (HHD, 435, China). At day 8, a square window (1 cm^2) was cut into the shell and removed, and a 2 cm^2 piece of the electrospun scaffold or hydrogels (16% PCL electrospun scaffold/CS/PVA hydrogel/CS/collagen hydrogels) placed onto the CAM. Each egg was implanted with one scaffold or hydrogel only.
The shell window was closed with parafilm (Bemis Flexible Packaging, USA) and sealed with adhesive tape. After implantation, eggs were placed again at 37° C. in a 40% humidified incubator until day 14. At day 14, biomaterials were retrieved and the eggs were sacrificed. Angiogenesis was quantified by taking light microscope pictures just before scaffold retrieval and then blindly scored by four assessors using histological images of the retrieved materials. The number of implanted and survived eggs is given in the caption of respective CAM assay figures.
D and L isomers of three-deoxysugars (ribose, fucose and rhamnose) were loaded onto the porous freeze gelated triethyl orthoformate (4%) covalently cross-linked chitosan/collagen (1:1) hydrogels. The hydrogels were soaked in an aqueous solution of sugars (1 mg/ml) and were further lyophilized (freeze dried) to produce porous membranes. As for the electrospun scaffold, the hydrogels were grafted into the fertilized eggs at day 8 and after day 14 the eggs were sacrificed and the effect of sugars on angiogenesis was investigated.

[3] = system: CAM; test: Ex-ovo CAM assay, implantation of E2 and 2dDR releasing PHBV scaffolds; type: in vivo, chicken (Gallus domesticus); conditions: for mean vessel count: control 23.1 (±1.24)
Protocol: (§1) All CAM experiments were carried out according to the Home Office, UK guidelines. Fertilised chicken eggs (Gallus domesticus) were purchased from Henry Stewart & Co. (MedEggs, Norwich, UK). The eggs were carefully wiped with 20% industrial methylated spirit (IMS) solution using hand paper towels in order to remove dirt and feathers from the shell. The eggs were then incubated at 37.5° C. until embryonic development day (EDD) 3, lying horizontally in an humidified egg incubator (RCOM King SURO, P&T Poultry, Powys, Wales).
(§2) On EDD3, the upper surface of the eggs were marked with a felt pen. The eggs were held horizontally (with the marked surface on top) and cracked on the edge of a 1000 ml glass beaker and kept close to the bottom surface of petri dishes. The embryos were then transferred gently into sterile petri dishes and kept in a humidified incubator (Binder, Tuttlingen, Germany) at 38° C.
Scaffolds were cut into 5.5 mm diameter circles using a laser cutting machine (Epilog Laser Cutter, Clevedon, UK) and sterilised under UV light for 1 hour prior to implantation. Two circular scaffolds were placed on CAM at EDD8. Images of the scaffolds were acquired using a digital microscope at EDD 12 and EDD14. Microinjection of rhodamine labelled lectin into the circulation was performed, CAMs were removed and fixed in 3.7% formaldehyde solution. Embryos were then sacrificed at the end of EDD14. Angiogenesis was quantified by counting all blood vessels that converged towards the graft.
Haematoxylin and Eosin (H&E) staining was performed on cell impregnated scaffolds by modifiying a standard protocol. Briefly, fixed samples were embedded in optimal cutting temperature OCT and frozen in liquid nitrogen for 3 minutes. Sections were cut 8-10 μm thick using a cryostat (Leica Biosystems Nussloch, Germany) at −20° C. Sections were then stained with haematoxylin for 90 seconds and eosin for 5 minutes respectively. Finally H&E images were acquired under a light microscope (Motic DM-B1, Xiamen, China). The total number of blood vessels adjacent to the scaffolds were quantified by counting blood vessels in H&E sections [A. Minajeva, M. Kase, M. Saretok, A. Adamson-Raieste, S. Kase, K. Niinepuu, M Vardja, T. Asser, J. Jaal, Impact of Blood Vessel Quantity and Vascular Expression of CD133 and ICAM-1 on Survival of Glioblastoma Patients, Neurosci J. 2017 (2017) 8 pages] Briefly, all discernible blood vessels adjacent to the scaffolds were counted by two independent researchers using two independent microscopes at 10× magnification from the total of six different slides for each group and six different area of interest from each slide.

[4] = E2 and 2dDR release from PHBV scaffolds in PBS; type: physicochemical; conditions: within 7 days
Protocol: 10% (w/w) PHBV solution loaded was prepared prior to electrospinning. 1 g of PHBV granules (Goodfellow, London, UK) were dissolved in 1 g of methanol (Fisher Scientific, Massachusetts, USA) and 8 g of DCM (Fisher Scientific, Massachusetts, USA) in a fume hood. Four 10% PHBV solutions were prepared prior to addition of substances. Finally, 25 mg E2, 50 mg of E2, 250 mg of 2dDR and 500 mg of 2dDR were then added to each solution per 1 g of PHBV. The mixtures were magnetically stirred overnight.
Scaffolds were cut into pieces so to fit into an 6-well plate, weighed and submerged in 4 ml of PBS. The E2 and 2dDR concentrations released from each group (25 mg E2, 50 mg E2, 250 mg 2dDR, 500 mg 2dDR) were measured […] using a UV-VIS spectrophotometer (Thermo Fischer Evolution 220, Massachusetts, USA) at 238 nm for 2dDR and 220 nm for E2. Absorbance values were converted into concentrations using a standard curve of known concentrations of E2 and 2dDR.

[5] = system: CAM; test: Ex-ovo CAM assay, direct application of substances; type: in vivo, chicken (Gallus domesticus); conditions: over 4 days
Protocol: as §1, §2
Plastic rings (˜6.5 mm in diameter) were used as a reservoir for substances and a marker for the implantation area, were placed on the CAM, and the substances were applied as 20 μl volume onto the CAM twice a day to give a […] between EDD7 and EDD11. Images of the rings were acquired using a digital microscope at EDD11, and then 20% lens culinaris agglutinin (LCA) (Vector Laboratories, Peterborough, UK) was injected into the circulation for labelling the intravascular endothelial cells using 30G needles under a dissection microscope (Wild Heerbrugg, Heerbrugg, Switzerland). CAMs were then removed and fixed in 3.7% formaldehyde solution. Embryos were sacrificed at the end of EDD11. Fixed CAM samples were then imaged under a confocal microscope (Zeiss LSM 510 Meta, Jena, Germany) for investigating the effect of substances on the microvascular structure of the CAMs.
Blood vessels were quantified by segmentation of the images [C. Roma-Rodrigues, A. Heuer-Jungemann, A. R. Fernandes, A. G. Kanaras, P. V. Baptista, Peptide-coated gold nanoparticles for modulation of angiogenesis in vivo, IntJ Nanomedicine. 11 (2016) 2633-2639. doi: 10.2147/IJN.S108661] so as to include all discernible vessels and then counting the branch points and calculating average vessel lengths [D. Ribatti, B. Nico, A. Vacca, M. Presta, The gelatin sponge-chorioallantoic membrane assay, Nat Protoc. 1 (2006) 85-91. doi: 10.1038/nprot.2006.13, P. Brooks, A. P. Montgomery, D. Cheresh, Use of the 10-Day-Old Chick Embryo Model for Studying Angiogenesis, Integrin Protoc. 129 (1999) 257-269. doi: 10.1385/1-59259-249-X: 257] via multiple image processing steps. Firstly, the internal area of the ring was cropped, and the red, green and blue channels were split using Adobe Photoshop CS6 (ADOBE Systems Inc., San Jose, California, USA). The green channel was then imported to ImageJ (Wayne Rasband, National Institutes of Health, USA) for further analysis including unsharp mask filtering, enhancing the local contrast, noise removal and segmentation. Finally, the number of branch points was quantified using quantification software (AngioTool, National Cancer Institute, USA) (FIG. 14A) and average blood vessel lengths were calculated by using binary image histograms with known pixel/mm ratios in ImageJ (Wayne Rasband, National Institutes of Health, USA).
The percentage vascular area (VA %) of the microvasculature of CAMs were quantified using confocal images of rhodamine labelled lectin injected CAM samples as shown in FIG. 14B. To do this, images were imported to ImageJ (Wayne Rasband, National Institutes of Health, USA) and converted to binary images after filtering and smoothing processes prior to quantification. VA % was calculated using the histogram list of black and white areas in the image.
All chemicals were purchased from Sigma Aldrich unless indicated otherwise. […]

For `O=CC[C@@H](O)[C@H](O)[C@H](O)CO` [2-DG, 2-deoxy-D-Glucose], the antiangiogenic activity [1] is given as “inhibited endothelial capillary formation and endothelial cell migration”.

For `C[C@@H](O)[C@H](O)[C@H](O)[C@@H](O)C=O` [Deoxy-D-fucose, D-fucose, reference compound], the angiogenic response [2] was “no significant response”.

For `C[C@@H](O)[C@@H](O)[C@H](O)[C@H](O)C=O` [Deoxy-D-rhamnose, D-rhamnose, reference compound], the angiogenic response [2] was “only a marginal response”.

For `C[C@]12CC[C@@H]3c4ccc(O)cc4CC[C@H]3[C@@H]1CC[C@@H]2O` [E2, Oestradiol, reference compound], the mean vessel count ([3]; 25 mg E2 loaded PHBV scaffolds) was 49.5 (±0.92), the mean vessel count ([3]; 50 mg E2 loaded PHBV scaffolds) was 37.9 (±1.05) and the “mean number of blood vessels adjacent to the scaffolds (H&E sections)” value ([3]; all concentrations, compared with controls and CAM only groups) was “significantly increased”. The “number of discernible blood vessels growing towards the scaffolds in comparison with plain PHBV scaffolds” value ([3]; all groups of releasing PHBV scaffolds) was “at least doubled”, the “total release from scaffolds, of the initial amount present in the polymer solution” value ([4]; 25 mg E2 per 1 g PHBV scaffold) was 1.3% and the “total release from scaffolds, of the initial amount present in the polymer solution” value ([4]; 50 mg E2 per 1 g PHBV scaffold) was 1.6%. For the same compound, the “increase of number of branch points compared to controls” value (shortened to “increase of number of branch points”) ([5]; E2 100 ng/day) was 1.3 fold, the “increase of number of branch points” value ([5]; E2 200 ng/day) was 1.5 fold and the “percentage vascular area (VA %) of microvasculature” value ([5]; E2 200 ng/day, control 55.3%±3%) was 79.5%±5%. The “increase of number of branch points” value ([5]; E2 600 ng/day) was 1.4 fold and the “increase of average vessel length compared to controls” value ([5]; all E2 concentrations (100, 200, 600 ng/day)) was 1.2 fold.
